What follows are cell lines tested with C[C@]1(c2nc3c(C(N)=O)cccc3[nH]2)CCCN1 [Veliparib] + Cc1nc(Nc2ncc(C(=O)Nc3c(C)cccc3Cl)s2)cc(N2CCN(CCO)CC2)n1 [Dasatinib] (partner 0.075 µM) (assay: relative viability (nuclei count vs DMSO), 5 days (fraction); higher = more cells survive). Settings: first compound 0.02 µM.
Outline: (§1)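 Lung cancer cell lines were seeded in 1536-well plates and dosed by pin tool the next day, with either a single drug or a fixed anchor-drug dose combined with five library-drug doses (not always all listed) spaced in √10 steps. Five days later, one step fixed the cells and stained their nuclei (final 0.05% Triton X-100, 1% formaldehyde, 1 ug/ml Hoechst), and nuclei were counted on 4× images. Relative viability is the nuclei count in treated wells divided by the count in vehicle wells, and each value is the median of duplicate plates.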
HOP-62 showed a relative viability of 0.634. With NCI-H2347 the relative viability was 0.327. In the case of HARA, the relative viability is reported as 0.254. NCI-H1915 gave a relative viability of 0.307. NCI-H23 gave a relative viability of 0.622. For NCI-H661, the relative viability was 0.886. Cell Line CAL-12T has a relative viability of 0.287. With HCC-366 the relative viability was 0.524.

Same assay, conditions: first compound 0.06325 µM
Work on HOP-62 yielded a relative viability of 0.549. NCI-H2347 showed a relative viability of 0.266. In the case of HARA, the relative viability is reported as 0.383. NCI-H1355 showed a relative viability of 0.676. NCI-H1915 showed a relative viability of 0.329. NCI-H23 gave a relative viability of 0.71. NCI-H661 gave a relative viability of 0.846. CAL-12T gave a relative viability of 0.354. Cell Line HCC-366 has a relative viability of 0.514. For NCI-H322M, the relative viability was 0.231.

Same assay, conditions: first compound 0.2 µM
HOP-62 was tested, and the relative viability was 0.705. In the case of NCI-H2347, the relative viability is reported as 0.275. Cell Line HARA has a relative viability of 0.294. NCI-H1355 showed a relative viability of 0.682. With NCI-H1915 the relative viability was 0.301. NCI-H23 showed a relative viability of 0.753. NCI-H661 was tested, and the relative viability was 0.777. CAL-12T showed a relative viability of 0.386. For HCC-366, the relative viability was 0.582. For NCI-H322M, the relative viability was 0.246.

Same assay, conditions: first compound 0.6325 µM
With HOP-62 the relative viability was 0.648. Work on NCI-H2347 yielded a relative viability of 0.336. For HARA, the relative viability was 0.231. In the case of NCI-H1355, the relative viability is reported as 0.611. For NCI-H1915, the relative viability was 0.314. NCI-H23 showed a relative viability of 0.75. NCI-H661 gave a relative viability of 0.86. CAL-12T gave a relative viability of 0.308. Work on HCC-366 yielded a relative viability of 0.572. In the case of NCI-H322M, the relative viability is reported as 0.27.

Same assay, conditions: first compound 2 µM
Cell Line HOP-62 has a relative viability of 0.651. NCI-H2347 was tested, and the relative viability was 0.315. In the case of HARA, the relative viability is reported as 0.267. NCI-H1355 showed a relative viability of 0.524. Work on NCI-H1915 yielded a relative viability of 0.297. NCI-H23 was tested, and the relative viability was 0.87. Work on NCI-H661 yielded a relative viability of 0.869. Work on CAL-12T yielded a relative viability of 0.468. With HCC-366 the relative viability was 0.588. For NCI-H322M, the relative viability was 0.253.

The cell lines below were run with C[C@]1(c2nc3c(C(N)=O)cccc3[nH]2)CCCN1 [Veliparib] + O=C(CCCCCCC(=O)Nc1ccccc1)NO [Vorinostat] (partner 1 µM) in the same assay as above. Settings: first compound 0.02 µM.
Outline: as §1
For HOP-62, the relative viability was 0.557. NCI-H2347 was tested, and the relative viability was 0.716. NCI-H1355 gave a relative viability of 0.44. NCI-H1915 gave a relative viability of 0.499. For NCI-H23, the relative viability was 0.633. Cell Line NCI-H661 has a relative viability of 0.815. Cell Line CAL-12T has a relative viability of 0.695. Cell Line HCC-366 has a relative viability of 0.379.

Same assay, conditions: first compound 0.06325 µM
For HOP-62, the relative viability was 0.527. In the case of NCI-H2347, the relative viability is reported as 0.545. HARA was tested, and the relative viability was 0.492. NCI-H1355 gave a relative viability of 0.528. Work on NCI-H1915 yielded a relative viability of 0.465. Work on NCI-H23 yielded a relative viability of 0.45. With NCI-H661 the relative viability was 0.807. For CAL-12T, the relative viability was 0.834. HCC-366 gave a relative viability of 0.232. NCI-H322M was tested, and the relative viability was 0.873.

Same assay, conditions: first compound 0.2 µM
HOP-62 was tested, and the relative viability was 0.593. NCI-H2347 showed a relative viability of 0.561. HARA showed a relative viability of 0.521. In the case of NCI-H1355, the relative viability is reported as 0.638. Work on NCI-H1915 yielded a relative viability of 0.396. With NCI-H23 the relative viability was 0.544. NCI-H661 was tested, and the relative viability was 0.713. Work on CAL-12T yielded a relative viability of 0.729. Cell Line HCC-366 has a relative viability of 0.296. NCI-H322M was tested, and the relative viability was 0.899.

Same assay, conditions: first compound 0.6325 µM
HOP-62 gave a relative viability of 0.539. For NCI-H2347, the relative viability was 0.616. Cell Line HARA has a relative viability of 0.529. Cell Line NCI-H1355 has a relative viability of 0.626. For NCI-H1915, the relative viability was 0.388. NCI-H23 was tested, and the relative viability was 0.543. NCI-H661 gave a relative viability of 0.697. With CAL-12T the relative viability was 0.589. HCC-366 gave a relative viability of 0.27. NCI-H322M was tested, and the relative viability was 0.976.

Same assay, conditions: first compound 2 µM
For HOP-62, the relative viability was 0.68. NCI-H2347 was tested, and the relative viability was 0.637. In the case of HARA, the relative viability is reported as 0.565. For NCI-H1355, the relative viability was 0.596. With NCI-H1915 the relative viability was 0.426. NCI-H23 was tested, and the relative viability was 0.56. NCI-H661 showed a relative viability of 0.76. Work on CAL-12T yielded a relative viability of 0.886. Work on HCC-366 yielded a relative viability of 0.289. For NCI-H322M, the relative viability was 0.717.

The cell lines below were run with COC1=CC=C(C=C1)CN2C=CC3=C2C=C(C=C3)C(=O)NO + Nc1nc2[nH]cc(CCc3ccc(C(=O)N[C@@H](CCC(=O)O)C(=O)O)cc3)c2c(=O)[nH]1 [Pemetrexed] (partner 0.2 µM) in the same assay as above. Settings: first compound 0.08 µM.
Outline: as §1
HOP-62 was tested, and the relative viability was 0.278. NCI-H2347 gave a relative viability of 0.399. Cell Line NCI-H1355 has a relative viability of 0.538. NCI-H1915 was tested, and the relative viability was 0.441. For NCI-H23, the relative viability was 0.514. Work on CAL-12T yielded a relative viability of 1.2. With HCC-366 the relative viability was 0.119.

Same assay, conditions: first compound 0.253 µM
HOP-62 showed a relative viability of 0.454. NCI-H2347 gave a relative viability of 0.44. For HARA, the relative viability was 0.263. In the case of NCI-H1355, the relative viability is reported as 1.06. NCI-H1915 was tested, and the relative viability was 0.527. NCI-H23 gave a relative viability of 0.625. In the case of NCI-H661, the relative viability is reported as 0.889. In the case of CAL-12T, the relative viability is reported as 1.27. Work on HCC-366 yielded a relative viability of 0.153.

Same assay, conditions: first compound 0.8 µM
In the case of HOP-62, the relative viability is reported as 0.31. Work on NCI-H2347 yielded a relative viability of 0.405. Cell Line HARA has a relative viability of 0.277. NCI-H1355 gave a relative viability of 0.978. NCI-H1915 was tested, and the relative viability was 0.49. For NCI-H23, the relative viability was 0.714. NCI-H661 showed a relative viability of 0.836. With CAL-12T the relative viability was 1.09. HCC-366 gave a relative viability of 0.172. For NCI-H322M, the relative viability was 0.561.

Same assay, conditions: first compound 2.53 µM
With HOP-62 the relative viability was 0.244. NCI-H2347 gave a relative viability of 0.473. In the case of HARA, the relative viability is reported as 0.258. NCI-H1355 was tested, and the relative viability was 1.06. Cell Line NCI-H1915 has a relative viability of 0.485. With NCI-H23 the relative viability was 0.709. In the case of NCI-H661, the relative viability is reported as 0.957. In the case of CAL-12T, the relative viability is reported as 1.1. HCC-366 gave a relative viability of 0.153. For NCI-H322M, the relative viability was 0.635.

Same assay, conditions: first compound 8 µM
Work on HOP-62 yielded a relative viability of 0.35. NCI-H2347 gave a relative viability of 0.453. HARA was tested, and the relative viability was 0.203. For NCI-H1355, the relative viability was 0.998. NCI-H1915 gave a relative viability of 0.447. Cell Line NCI-H23 has a relative viability of 0.668. NCI-H661 showed a relative viability of 0.954. CAL-12T gave a relative viability of 1.27. Work on HCC-366 yielded a relative viability of 0.175. Cell Line NCI-H322M has a relative viability of 0.609.

What follows are cell lines tested with C[C@]1(c2nc3c(C(N)=O)cccc3[nH]2)CCCN1 [Veliparib] + CC(C)C[C@H](NC(=O)[C@H](Cc1ccccc1)NC(=O)c1cnccn1)B(O)O [Bortezomib] (partner 0.002 µM) in the same assay as above. Settings: first compound 0.02 µM.
Outline: as §1
HOP-62 gave a relative viability of 0.729. In the case of NCI-H2347, the relative viability is reported as 1.13. HARA was tested, and the relative viability was 1.13. With NCI-H1915 the relative viability was 0.939. For NCI-H23, the relative viability was 0.887. NCI-H661 showed a relative viability of 0.635. CAL-12T showed a relative viability of 0.862. HCC-366 was tested, and the relative viability was 1.06. Work on NCI-H322M yielded a relative viability of 1.25.

Same assay, conditions: first compound 0.06325 µM
With HOP-62 the relative viability was 1.16. NCI-H2347 was tested, and the relative viability was 0.687. HARA gave a relative viability of 1.1. NCI-H1355 was tested, and the relative viability was 0.707. NCI-H1915 gave a relative viability of 1.02. NCI-H23 showed a relative viability of 1.04. With NCI-H661 the relative viability was 0.877. In the case of CAL-12T, the relative viability is reported as 0.72. Cell Line HCC-366 has a relative viability of 1.05. In the case of NCI-H322M, the relative viability is reported as 1.15.

Same assay, conditions: first compound 0.2 µM
In the case of HOP-62, the relative viability is reported as 0.811. NCI-H2347 gave a relative viability of 1.09. In the case of HARA, the relative viability is reported as 0.995. Cell Line NCI-H1355 has a relative viability of 1.23. Cell Line NCI-H1915 has a relative viability of 0.842. NCI-H23 gave a relative viability of 1.02. NCI-H661 showed a relative viability of 0.767. With CAL-12T the relative viability was 0.952. With HCC-366 the relative viability was 1.01. Cell Line NCI-H322M has a relative viability of 1.26.

Same assay, conditions: first compound 0.6325 µM
In the case of HOP-62, the relative viability is reported as 0.733. In the case of NCI-H2347, the relative viability is reported as 1.21. Cell Line HARA has a relative viability of 1.11. Cell Line NCI-H1355 has a relative viability of 1.09. NCI-H1915 gave a relative viability of 0.915. In the case of NCI-H23, the relative viability is reported as 0.883. In the case of NCI-H661, the relative viability is reported as 0.731. In the case of CAL-12T, the relative viability is reported as 1.18. HCC-366 gave a relative viability of 1.07. With NCI-H322M the relative viability was 1.07.

Same assay, conditions: first compound 2 µM
Work on HOP-62 yielded a relative viability of 0.951. NCI-H2347 gave a relative viability of 0.959. HARA was tested, and the relative viability was 1.16. For NCI-H1355, the relative viability was 1.15. With NCI-H1915 the relative viability was 0.755. Work on NCI-H23 yielded a relative viability of 1.08. Cell Line NCI-H661 has a relative viability of 0.777. With CAL-12T the relative viability was 0.971. HCC-366 gave a relative viability of 1.07. Cell Line NCI-H322M has a relative viability of 1.17.

— the supplement of paper PMC10307832
